Results reported in ChEMBL document CHEMBL3885881, “DrugMatrix”.

Species: Rattus norvegicus
Experiment: DrugMatrix - Regimen: Daily Repeat
Format: toxicity, organism-based, Sprague-Dawley
Parameters: regimen Daily Repeat, gender Male, age 6-8 weeks
Conditions: in vivo, po, route oral GAVAGE; for ALANINE AMINOTRANSFERASE / ALBUMIN / ALKALINE PHOSPHATASE / ASPARTATE AMINOTRANSFERASE / BLOOD UREA NITROGEN / CARBON DIOXIDE / CHLORIDE / CHOLESTEROL / CREATININE / GLUCOSE / LIPASE / PHOSPHORUS / POTASSIUM / SODIUM / TOTAL BILIRUBIN / CREATINE PHOSPHOKINASE / LACTATE DEHYDROGENASE / TOTAL PROTEIN / URIC ACID: tissue Plasma; for ABSOLUTE BASOPHIL / ABSOLUTE EOSINOPHIL / ABSOLUTE LYMPHOCYTE / ABSOLUTE MONOCYTE / ABSOLUTE SEGMENTED NEUTROPHIL / BASOPHIL / EOSINOPHIL / ERYTHROCYTE COUNT / HEMATOCRIT / HEMOGLOBIN / LEUKOCYTE COUNT / LYMPHOCYTE / MEAN CORPUSCULAR HEMOGLOBIN / MEAN CORPUSCULAR HEMOGLOBIN CONCENTRATION / MEAN CORPUSCULAR VOLUME / MONOCYTE / NEUTROPHIL / NUCLEATED RED BLOOD CELLS / PLATELET COUNT: tissue Blood
[1] = 7 mg/kg, 96 h, dose level M1, time 4 day, […]
[2] = 12 mg/kg, 72 h, dose level High, time 3 day, vehicle 100 % WATER
[3] = 12 mg/kg, 120 h, dose level High, time 5 day, vehicle 100 % WATER
[4] = […], 72 h, dose 9.6 mg/Kg, dose level M1, time 3 day, vehicle 100 % WATER
[5] = […], 120 h, dose 9.6 mg/Kg, dose level M1, time 5 day, vehicle 100 % WATER

COc1ccc2c(c1)c(CC(=O)O)c(C)n2C(=O)c1ccc(Cl)cc1 [INDOMETHACIN]
ALANINE AMINOTRANSFERASE [1]: 65.33 u/L
ALBUMIN [1]: 2.67 G/DL
ALKALINE PHOSPHATASE [1]: 487 u/L
ASPARTATE AMINOTRANSFERASE [1]: 260 u/L
BLOOD UREA NITROGEN [1]: 49.33 mg/dL
CARBON DIOXIDE [1]: 24.3 mmol/L
CHLORIDE [1]: 100 MEQ/L
CHOLESTEROL [1]: 61.33 mg/dL
CREATININE [1]: 0.3 mg/dL
GLUCOSE [1]: 83 mg/dL
LIPASE [1]: 296.67 u/L
PHOSPHORUS [1]: 8.35 mg/dL
POTASSIUM [1]: 5.5 MEQ/L
SODIUM [1]: 138 MEQ/L
TOTAL BILIRUBIN [1]: 0.09 mg/dL
ABSOLUTE BASOPHIL [2]: 0 CELLS/uL
ABSOLUTE EOSINOPHIL [2]: 64 CELLS/uL
ABSOLUTE LYMPHOCYTE [2]: 7403 CELLS/uL
ABSOLUTE MONOCYTE [2]: 98 CELLS/uL
ABSOLUTE SEGMENTED NEUTROPHIL [2]: 468.33 CELLS/uL
BASOPHIL [2]: 0%
EOSINOPHIL [2]: 0.67%
ERYTHROCYTE COUNT [2]: 2.59 x10E6/uL
HEMATOCRIT [2]: 16.8%
HEMOGLOBIN [2]: 6.83 G/DL
LEUKOCYTE COUNT [2]: 8.03 x10E3/uL
LYMPHOCYTE [2]: 93.33%
MEAN CORPUSCULAR HEMOGLOBIN [2]: 26.43 pg
MEAN CORPUSCULAR HEMOGLOBIN CONCENTRATION [2]: 40.53 G/DL
MEAN CORPUSCULAR VOLUME [2]: 65.07 fL
MONOCYTE [2]: 1%
NEUTROPHIL [2]: 5%
NUCLEATED RED BLOOD CELLS [2]: 2.67 /100WBC
PLATELET COUNT [2]: 714.67 x10E3/uL
ALANINE AMINOTRANSFERASE [2]: 21 u/L
ALBUMIN [2]: 1.93 G/DL
ALKALINE PHOSPHATASE [2]: 177.67 u/L
ASPARTATE AMINOTRANSFERASE [2]: 46.33 u/L
BLOOD UREA NITROGEN [2]: 15.33 mg/dL
CARBON DIOXIDE [2]: 27 mmol/L
CHLORIDE [2]: 104.33 MEQ/L
CHOLESTEROL [2]: 69.67 mg/dL
CREATINE PHOSPHOKINASE [2]: 148.33 u/L
CREATININE [2]: 0.1 mg/dL
GLUCOSE [2]: 146.67 mg/dL
LACTATE DEHYDROGENASE [2]: 36 u/L
LIPASE [2]: 8.33 u/L
PHOSPHORUS [2]: 11 mg/dL
POTASSIUM [2]: 4.8 MEQ/L
SODIUM [2]: 143.4 MEQ/L
TOTAL BILIRUBIN [2]: 0.1 mg/dL
TOTAL PROTEIN [2]: 4.5 G/DL
URIC ACID [2]: 0.53 mg/dL
ABSOLUTE BASOPHIL [3]: 0 CELLS/uL
ABSOLUTE EOSINOPHIL [3]: 18.5 CELLS/uL
ABSOLUTE LYMPHOCYTE [3]: 2977 CELLS/uL
ABSOLUTE MONOCYTE [3]: 109 CELLS/uL
ABSOLUTE SEGMENTED NEUTROPHIL [3]: 495.5 CELLS/uL
BASOPHIL [3]: 0%
EOSINOPHIL [3]: 0.5%
ERYTHROCYTE COUNT [3]: 3.63 x10E6/uL
HEMATOCRIT [3]: 21.7%
HEMOGLOBIN [3]: 9.1 G/DL
LEUKOCYTE COUNT [3]: 3.6 x10E3/uL
LYMPHOCYTE [3]: 83%
MEAN CORPUSCULAR HEMOGLOBIN [3]: 25 pg
MEAN CORPUSCULAR HEMOGLOBIN CONCENTRATION [3]: 41.8 G/DL
MEAN CORPUSCULAR VOLUME [3]: 59.9 fL
MONOCYTE [3]: 3%
NEUTROPHIL [3]: 13.5%
NUCLEATED RED BLOOD CELLS [3]: 1.5 /100WBC
PLATELET COUNT [3]: 1098.5 x10E3/uL
ALANINE AMINOTRANSFERASE [3]: 17 u/L
ALBUMIN [3]: 2.1 G/DL
ALKALINE PHOSPHATASE [3]: 366 u/L
ASPARTATE AMINOTRANSFERASE [3]: 84 u/L
BLOOD UREA NITROGEN [3]: 37 mg/dL
CARBON DIOXIDE [3]: 26 mmol/L
CHLORIDE [3]: 108 MEQ/L
CHOLESTEROL [3]: 66 mg/dL
CREATINE PHOSPHOKINASE [3]: 224 u/L
CREATININE [3]: 0.1 mg/dL
GLUCOSE [3]: 132.5 mg/dL
LACTATE DEHYDROGENASE [3]: 83.5 u/L
LIPASE [3]: 12.5 u/L
PHOSPHORUS [3]: 11.15 mg/dL
POTASSIUM [3]: 5.62 MEQ/L
SODIUM [3]: 146.9 MEQ/L
TOTAL BILIRUBIN [3]: 0.15 mg/dL
TOTAL PROTEIN [3]: 4.7 G/DL
URIC ACID [3]: 0.45 mg/dL
ABSOLUTE BASOPHIL [4]: 0 CELLS/uL
ABSOLUTE EOSINOPHIL [4]: 39.33 CELLS/uL
ABSOLUTE LYMPHOCYTE [4]: 13009.33 CELLS/uL
ABSOLUTE MONOCYTE [4]: 145.33 CELLS/uL
ABSOLUTE SEGMENTED NEUTROPHIL [4]: 3406 CELLS/uL
BASOPHIL [4]: 0%
EOSINOPHIL [4]: 0.33%
ERYTHROCYTE COUNT [4]: 4.19 x10E6/uL
HEMATOCRIT [4]: 26.67%
HEMOGLOBIN [4]: 10.63 G/DL
LEUKOCYTE COUNT [4]: 16.6 x10E3/uL
LYMPHOCYTE [4]: 78.33%
MEAN CORPUSCULAR HEMOGLOBIN [4]: 25.53 pg
MEAN CORPUSCULAR HEMOGLOBIN CONCENTRATION [4]: 40 G/DL
MEAN CORPUSCULAR VOLUME [4]: 63.8 fL
MONOCYTE [4]: 1%
NEUTROPHIL [4]: 20.33%
NUCLEATED RED BLOOD CELLS [4]: 0 /100WBC
PLATELET COUNT [4]: 984.67 x10E3/uL
ALANINE AMINOTRANSFERASE [4]: 50.33 u/L
ALBUMIN [4]: 3.17 G/DL
ALKALINE PHOSPHATASE [4]: 197.33 u/L
ASPARTATE AMINOTRANSFERASE [4]: 77.33 u/L
BLOOD UREA NITROGEN [4]: 13.33 mg/dL
CARBON DIOXIDE [4]: 26 mmol/L
CHLORIDE [4]: 102.67 MEQ/L
CHOLESTEROL [4]: 72.33 mg/dL
CREATINE PHOSPHOKINASE [4]: 564.67 u/L
CREATININE [4]: 0.3 mg/dL
GLUCOSE [4]: 162.33 mg/dL
LACTATE DEHYDROGENASE [4]: 111.33 u/L
LIPASE [4]: 11.67 u/L
PHOSPHORUS [4]: 10.83 mg/dL
POTASSIUM [4]: 5.33 MEQ/L
SODIUM [4]: 141.3 MEQ/L
TOTAL BILIRUBIN [4]: 0.1 mg/dL
TOTAL PROTEIN [4]: 5.07 G/DL
URIC ACID [4]: 1.23 mg/dL
ABSOLUTE BASOPHIL [5]: 0 CELLS/uL
ABSOLUTE EOSINOPHIL [5]: 0 CELLS/uL
ABSOLUTE LYMPHOCYTE [5]: 4773 CELLS/uL
ABSOLUTE MONOCYTE [5]: 34 CELLS/uL
ABSOLUTE SEGMENTED NEUTROPHIL [5]: 943 CELLS/uL
BASOPHIL [5]: 0%
EOSINOPHIL [5]: 0%
ERYTHROCYTE COUNT [5]: 4.33 x10E6/uL
HEMATOCRIT [5]: 26.75%
HEMOGLOBIN [5]: 10.7 G/DL
LEUKOCYTE COUNT [5]: 5.75 x10E3/uL
LYMPHOCYTE [5]: 81%
MEAN CORPUSCULAR HEMOGLOBIN [5]: 24.7 pg
MEAN CORPUSCULAR HEMOGLOBIN CONCENTRATION [5]: 40 G/DL
MEAN CORPUSCULAR VOLUME [5]: 61.75 fL
MONOCYTE [5]: 0.5%
NEUTROPHIL [5]: 18.5%
NUCLEATED RED BLOOD CELLS [5]: 1 /100WBC
PLATELET COUNT [5]: 1266.5 x10E3/uL
ALANINE AMINOTRANSFERASE [5]: 53.5 u/L
ALBUMIN [5]: 3 G/DL
ALKALINE PHOSPHATASE [5]: 320 u/L
ASPARTATE AMINOTRANSFERASE [5]: 129 u/L
BLOOD UREA NITROGEN [5]: 45 mg/dL
CARBON DIOXIDE [5]: 33 mmol/L
CHLORIDE [5]: 92.5 MEQ/L
CHOLESTEROL [5]: 60.5 mg/dL
CREATINE PHOSPHOKINASE [5]: 215 u/L
CREATININE [5]: 0.32 mg/dL
GLUCOSE [5]: 131 mg/dL
LACTATE DEHYDROGENASE [5]: 112.5 u/L
LIPASE [5]: 24.5 u/L
PHOSPHORUS [5]: 11.45 mg/dL
POTASSIUM [5]: 5.66 MEQ/L
SODIUM [5]: 139.9 MEQ/L
TOTAL BILIRUBIN [5]: 0.15 mg/dL
TOTAL PROTEIN [5]: 5.8 G/DL
URIC ACID [5]: 1.05 mg/dL
